Patent US20250099420A1, “SMALL MOLECULE MODULATORS OF GPR139 COMPLEX” (University of Florida Research Foundation, Incorporated, priority 2022, published 2025)
Read-outs that look alike come from different tables or passages of the source.

Columns and labels:
[1] = system: parental HEK cells; experiment: HEK parental Agonist Counterscreen Assay (non-transfected cells); assay type: cell-based; conditions: for Averaged Max % Response (±St. Dev.): activity relative to known control
Text: The high control for the agonist counterscreen was Forskolin not acetylcholine.

[2] = biological target: T1, GPR139 (Homo sapiens, UniProt Q6DWJ6); experiment: GPR139 Agonist titration / agonist counterscreen assay (calcium detection, HEK-GPR139 cells); assay type: cell-based; set-up: expressed in transfected cells; host or cells: HEK Aequorin cells, Maxcyte transient transfection; conditions: GPR139 Agonist Activity; for Averaged Max % Response (±St. Dev.): activity relative to known control; for EC50: read-out: EC50
T1 sequence (Q6DWJ6 1-353): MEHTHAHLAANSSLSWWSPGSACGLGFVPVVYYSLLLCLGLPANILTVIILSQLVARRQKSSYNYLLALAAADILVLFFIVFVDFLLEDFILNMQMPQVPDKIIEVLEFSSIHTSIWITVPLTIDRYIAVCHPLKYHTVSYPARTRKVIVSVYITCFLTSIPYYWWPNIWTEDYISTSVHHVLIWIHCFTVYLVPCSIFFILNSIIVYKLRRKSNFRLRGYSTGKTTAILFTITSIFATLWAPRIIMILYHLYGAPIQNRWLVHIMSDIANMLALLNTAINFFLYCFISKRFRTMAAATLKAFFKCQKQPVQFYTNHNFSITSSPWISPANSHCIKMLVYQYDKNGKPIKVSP
Method: GPR activity was assessed using a calcium detection assay. […] Negative control samples were treated with DMSO. […] Intracellular calcium was measured using Calcium 5.

[3] = Homo sapiens, HEK293, HEK Agonist Activity, parental non-transfected HEK cells
[4] = values printed in E-notation without unit
[5] = HEK Agonist Activity section of Table 4 (parental HEK counterscreen)
[6] = Homo sapiens, HEK293, HEK Agonist Activity section of Table 4 (parental HEK counterscreen)

| SMILES | Averaged Max % Response (±St. Dev.) [2] [%] | Lipophilic Efficiency (logD) ([2]; based on logD) | Lipophilic Efficiency (logP) ([2]; based on logP) | Hill Slope ([2]; fitted dose-response curve) | Efficiency Ligand ([2]; ligand efficiency) | EC50 [2, 4] [nM] | Lipophilic Efficiency (logD) ([1]; HEK Agonist Activity section) | Lipophilic Efficiency (logP) ([1]; HEK Agonist Activity section) | Averaged Max % Response (±St. Dev.) ([1]; HEK Agonist Activity section) [%] | Efficiency Ligand [2] | Hill Slope [2] | Lipophilic Efficiency (logD) [2] | Lipophilic Efficiency (logP) [2] | EC50 ([2]; HEK-GPR139 cells) [nM] | EC50 [1, 6] [nM] | further results |
| --- | --- | --- | --- | --- | --- | --- | --- | --- | --- | --- | --- | --- | --- | --- | --- | --- |
| O=C(CCC(=O)c1ccco1)NNC(=O)CN1CCCc2ccccc21 [SR-01000068721] | 109.68 ± 5.18 | 5.32 | 5.32 | 0.71 | 0.40 | 34.7 |  |  |  |  |  |  |  |  |  | Lipophilic Efficiency (logD) ([1]; HEK Agonist Activity): 2.68; Lipophilic Efficiency (logP) ([1]; HEK Agonist Activity): 2.68; Averaged Max % Response (±St. Dev.) ([1]; HEK Agonist Activity): 8.82 ± 10.34%; EC50 [1, 3]: > 15200 nM |
| Cl.Cl.Nc1[nH]ncc1-c1ccc(NC(=O)[C@H](N)Cc2cccc(F)c2)cc1 [SR-00000004378] | 72.99 ± 14.39 |  |  |  |  |  | 3.65 | 2.98 | −19.97 ± 10.80 | 0.34 | 0.72 | 4.84 | 4.17 | 914 |  | EC50 [1, 5]: > 14100 nM |
| Cc1cc(Cl)ccc1OCC(=O)NNC(=O)C1CC1c1ccccc1 (stereo not drawn) [SR-01000317486] | 114.27 ± 15.21 | 4.70 | 4.70 | 1.01 | 0.44 | 12.3 |  |  |  |  |  |  |  |  |  | Lipophilic Efficiency (logD) ([1]; HEK Agonist Activity): 1.64; Lipophilic Efficiency (logP) ([1]; HEK Agonist Activity): 1.64; Averaged Max % Response (±St. Dev.) ([1]; HEK Agonist Activity): 3.86 ± 3.87%; EC50 [1, 3]: > 14100 nM |
| O=C(NCCc1ccc(Cl)cc1)c1ccc(N2CC3CC(C2)c2cccc(=O)n2C3)c(NS(=O)(=O)c2ccc3c(c2)OCCO3)c1 (stereo not drawn) [SR-01000583473] | 116.62 ± 3.81 | 3.89 | 3.71 | 0.26 | 0.23 | 40.1 |  |  |  |  |  |  |  |  |  | Hill Slope ([1]; HEK Agonist Activity): 0.45; Lipophilic Efficiency (logD) ([1]; HEK Agonist Activity): 1.64; Lipophilic Efficiency (logP) ([1]; HEK Agonist Activity): 1.46; Averaged Max % Response (±St. Dev.) ([1]; HEK Agonist Activity): 54.64 ± 8.92%; EC50 ([1]; HEK Agonist Activity, parental non-transfected HEK cells): 7200 nM |
| CCCCCCC(=O)NNC(=O)c1c(O)c2ccccc2n(CCC)c1=O [SR-01000360839] | 57.17 ± 6.17 |  |  |  |  |  | 4.41 | 2.59 | 0.18 ± 6.80 | 0.28 | 1.91 | 4.95 | 3.13 | 4100 |  | EC50 [1, 5]: > 14100 nM |
| O=C(CC1C(=O)N(c2ccccc2)C(=O)N1Cc1ccc2c(c1)OCO2)Nc1ccc(Cl)cc1 (stereo not drawn) [SR-01000428566] | 84.07 ± 18.43 |  |  |  |  |  | 0.07 | 0.07 | 40.80 ± 6.00 | 0.26 | 1.72 | 1.52 | 1.52 | 424 | > 11900 |  |
| CN(Cc1ccc[nH]1)C(=O)CN1C(=O)NC2(CCc3ccccc3C2)C1=O (stereo not drawn) [SR-01000068179] | 87.03 ± 9.26 |  |  |  |  |  | 2.52 | 2.52 | 2.62 ± 3.03 | 0.31 | 0.84 | 3.64 | 3.64 | 1100 | > 14700 |  |
| Cc1ccc(CCC(=O)NNC(=O)CCc2ccccc2)c(Br)c1 [SR-01000313193] | 90.41 ± 15.26 |  |  |  |  |  | 1.40 | 1.39 | 8.61 ± 6.03 | 0.36 | 1.19 | 2.69 | 2.69 | 719 | > 14100 |  |
| CCCCN(C)C(=O)CCC(=O)NNC1Cc2ccccc2C2=CC(C)=CC21 (stereo not drawn) [SR-01000131962] | 113.53 ± 12.66 | 4.28 | 4.28 | 1.14 | 0.34 |  | 2.37 | 2.37 | −5.39 ± 5.10 |  |  |  |  |  | > 14100 |  |
| CCCc1ccc(NC(=O)CCc2nc3c(c(=O)n2C)CCC3)cc1 [SR-01000017533] | 69.12 ± 3.13 |  |  |  |  |  | 2.68 | 2.68 | −1.95 ± 4.81 | 0.31 | 1.55 | 3.33 | 3.33 |  | > 14200 |  |
| O=C(Cn1ccc2ccccc21)NCCn1cnc(-c2ccccc2)cc1=O [SR-01000926956] | 100.27 ± 11.90 | 5.36 | 5.36 | 0.74 | 0.37 | 45.1 |  |  |  |  |  |  |  |  |  | Lipophilic Efficiency (logD) ([1]; HEK Agonist Activity): 2.87; Lipophilic Efficiency (logP) ([1]; HEK Agonist Activity): 2.87; Averaged Max % Response (±St. Dev.) ([1]; HEK Agonist Activity): −3.24 ± 9.86%; EC50 [1, 3]: > 14100 nM |
| O=C(CC(C(=O)N1CCc2ccccc21)n1ccnc1)N1CCCCCC1 (stereo not drawn) [SR-01000144627] | 93.44 ± 12.43 | 4.94 | 4.88 | 1.08 | 0.34 | 229 | 3.15 | 3.09 | 28.51 ± 2.67 |  |  |  |  |  | > 14100 |  |
| O=C(CN1C(=O)OC(O)(c2ccc(Cl)cc2Cl)C1=O)Nc1ccccc1Cl (stereo not drawn) [SR-01000062419] | 105.27 ± 9.38 |  |  |  |  |  | 0.98 | 0.97 | 19.92 ± 2.49 | 0.33 | 0.63 | 2.50 | 2.49 | 438 | > 14500 |  |
| CCOC(=O)N1CCC2=C(CC(NC(=O)Cc3cccc4ccccc34)=C2C(C)=O)C1 [SR-01000011241] | 63.10 ± 2.62 |  |  |  |  |  | 1.05 | 1.05 | 1.28 ± 10.93 | 0.26 | 1.07 | 1.89 | 1.89 |  | > 14200 |  |
| Cc1ccc(CN2CCN(CC(=O)NCCc3ccc(Cl)cc3)C2=O)c(Cl)c1 [SR-01000125626] | 79.66 ± 15.90 |  |  |  |  |  | 1.51 | 1.51 | −27.02 ± 6.51 | 0.30 | 0.73 | 2.72 | 2.72 |  | > 14100 |  |
